Test results from patent publication US11786492B2, “Therapeutic agent for phosphodiesterase inhibition and its related disorders” (Novalead Pharma Inc, priority 2017, dated 2023).

Legend:
[1] = target: PDE1A (Homo sapiens, UniProt P54750); assay: Fluorescence polarization assay PDE1A; format: biochemical; conditions: substrate cGMP, Ca-CaM
Protocol: (§1) An experiment to check inhibition of various subtypes of the target Phosphodiesterase (PDE) enzyme in in-vitro assay was performed. […] PDE1A, PDE2A, PDE4A, PDE4B, PDE4C, PDE4D, PDE5A, PDE7A, PDE9A, PDE10A.

[2] = target: PDE2A (Homo sapiens, UniProt O00408); assay: Fluorescence polarization assay PDE2A; format: biochemical; conditions: substrate cGMP
Protocol: as §1

[3] = test system: HaCaT cells; assay: Keratinocyte (HaCaT) proliferation, MTT assay; format: cell-based, human
Protocol: An experiment to check keratinocyte proliferation inhibitory activity of selected compounds of Formula-I was performed to establish its application in skin disorders related to keratinocyte hyper-proliferation. HaCaT cells, a human immortalized cell line derived from keratinocytes, representing hyper-proliferating keratinocytes was investigated for anti-proliferative potential of the selected compounds by MTT assay.

[4] = test system: human PBMCs; assay: Cell viability of human PBMCs, Alamar blue; format: cell-based
Protocol: (§2) Fresh human blood from healthy volunteer was collected in anticoagulant (5 mM) ethylene diamine tetra acetic acid (EDTA) containing tubes. The growth medium used was RPMI-1640 medium (with 3% FBS) and incubated at 37° C. for 60 mins in a 5% CO2 incubator with vehicle used as 1% DMSO. The cell viability was checked at various time points using Alamar blue and fluorescence readings were taken at excitation of 544 nm and emission of 590 nm.

[5] = test system: Human IL-17A; assay: IL-17A release from stimulated PBMCs, ELISA; format: cell-based; conditions: PMA+Ionomycin, 18 hrs
Protocol: as §2
(§3) PBMCs were stimulated with different stimulators as follows: • a. Cells were exposed to stimulator LPS at 100 ng/mL for 18 hrs to stimulate TNF-α, IL-6, IFN-γ, IL10, IL-1β • b. Cells were exposed to stimulator IFN-γ+LPS at 100 ng/mL+1 μg/mL for 18 hrs to stimulate IL-12 • c. Cells were exposed to stimulator PMA+Ionomycin at 50 ng/mL+1 μg/mL for 18 hrs to stimulate IL-23, IL-22, IL-17A, IL-17F
(§4) After 18 hrs supernatants were collected and centrifuged to remove any cell debris and aliquots were used for ELISA.

[6] = test system: Human IL-17F; assay: IL-17F release from stimulated PBMCs, ELISA; format: cell-based; conditions: PMA+Ionomycin, 18 hrs
Protocol: as §2, §3, §4

[7] = test system: Human IL-6; assay: IL-6 release from stimulated PBMCs, ELISA; format: cell-based; conditions: LPS 100 ng/mL, 18 hrs
Protocol: as §2, §3, §4

[8] = test system: Human IL-10; assay: IL-10 release from stimulated PBMCs, ELISA; format: cell-based; conditions: LPS 100 ng/mL, 18 hrs
Protocol: as §2, §3, §4

[9] = test system: Human IL-12; assay: IL-12 release from stimulated PBMCs, ELISA; format: cell-based; conditions: IFN-γ+LPS, 18 hrs
Protocol: as §2, §3, §4

[10] = test system: Human IL-1β; assay: IL-1β release from stimulated PBMCs, ELISA; format: cell-based; conditions: LPS 100 ng/mL, 18 hrs
Protocol: as §2, §3, §4

[11] = test system: HaCaT cells; assay: Cell viability of HaCaT cells, Alamar blue; format: cell-based, human
Protocol: (§5) HaCaT cells were maintained in T-75 cm2 flask in Dulbecco's modified Eagle medium supplemented with FBS (10%), L-glutamine (2 mM), penicillin (100 ug/ml), streptomycin (100 ug/ml) at 37° C. in 5% CO2 incubator. Cell growth was maintained to 70-80% confluence for seeding and vehicle used was 1% DMSO. The cell viability was checked at various time points using Alamar blue and fluorescence readings were taken at excitation of 544 nm and emission of 590 nm.

[12] = test system: TNF-α; assay: TNF-α release from stimulated HaCaT cells, ELISA; format: cell-based, human; conditions: IFN-γ 50 ng/mL, 48 hrs
Protocol: as §5
(§6) HaCaT cells were stimulated with different stimulators as follows: • a. Cells were exposed to stimulator LPS at 1 μg/mL for 48 hrs to stimulate IL-1β • b. Cells were exposed to stimulator IFN-γ at 50 ng/mL for 48 hrs to stimulate TNF-α, IL-6
(§7) After 48 hrs supernatants were collected and centrifuged to remove any cell debris and aliquots were used for ELISA.

[13] = test system: IL-6; assay: IL-6 release from stimulated HaCaT cells, ELISA; format: cell-based, human; conditions: IFN-γ 50 ng/mL, 48 hrs
Protocol: as §5, §6, §7

PDE2A, sequence (O00408 whole entry, species assumed): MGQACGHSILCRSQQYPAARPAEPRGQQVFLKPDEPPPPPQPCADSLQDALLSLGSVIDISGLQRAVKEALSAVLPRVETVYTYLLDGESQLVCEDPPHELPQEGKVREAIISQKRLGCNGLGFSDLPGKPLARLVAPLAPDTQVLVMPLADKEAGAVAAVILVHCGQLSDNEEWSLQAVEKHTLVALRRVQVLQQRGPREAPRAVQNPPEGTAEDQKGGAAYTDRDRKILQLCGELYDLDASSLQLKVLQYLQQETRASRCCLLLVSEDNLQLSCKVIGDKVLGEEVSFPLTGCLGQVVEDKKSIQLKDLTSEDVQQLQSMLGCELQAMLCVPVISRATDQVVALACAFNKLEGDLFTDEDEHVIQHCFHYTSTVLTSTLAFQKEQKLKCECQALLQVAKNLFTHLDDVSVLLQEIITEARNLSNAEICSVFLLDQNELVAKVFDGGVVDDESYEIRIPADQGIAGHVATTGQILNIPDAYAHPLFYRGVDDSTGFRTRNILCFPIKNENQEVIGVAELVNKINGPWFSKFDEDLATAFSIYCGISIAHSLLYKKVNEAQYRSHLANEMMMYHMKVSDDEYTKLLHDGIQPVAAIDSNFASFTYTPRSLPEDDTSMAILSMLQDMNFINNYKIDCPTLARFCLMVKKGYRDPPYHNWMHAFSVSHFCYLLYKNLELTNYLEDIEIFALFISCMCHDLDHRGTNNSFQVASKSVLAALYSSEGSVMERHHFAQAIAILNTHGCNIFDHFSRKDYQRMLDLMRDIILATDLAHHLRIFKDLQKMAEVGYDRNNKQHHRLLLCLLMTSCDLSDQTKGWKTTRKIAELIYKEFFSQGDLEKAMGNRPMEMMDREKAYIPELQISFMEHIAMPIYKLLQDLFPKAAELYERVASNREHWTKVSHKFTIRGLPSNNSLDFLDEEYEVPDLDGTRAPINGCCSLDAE
PDE1A, sequence (P54750 whole entry, species assumed): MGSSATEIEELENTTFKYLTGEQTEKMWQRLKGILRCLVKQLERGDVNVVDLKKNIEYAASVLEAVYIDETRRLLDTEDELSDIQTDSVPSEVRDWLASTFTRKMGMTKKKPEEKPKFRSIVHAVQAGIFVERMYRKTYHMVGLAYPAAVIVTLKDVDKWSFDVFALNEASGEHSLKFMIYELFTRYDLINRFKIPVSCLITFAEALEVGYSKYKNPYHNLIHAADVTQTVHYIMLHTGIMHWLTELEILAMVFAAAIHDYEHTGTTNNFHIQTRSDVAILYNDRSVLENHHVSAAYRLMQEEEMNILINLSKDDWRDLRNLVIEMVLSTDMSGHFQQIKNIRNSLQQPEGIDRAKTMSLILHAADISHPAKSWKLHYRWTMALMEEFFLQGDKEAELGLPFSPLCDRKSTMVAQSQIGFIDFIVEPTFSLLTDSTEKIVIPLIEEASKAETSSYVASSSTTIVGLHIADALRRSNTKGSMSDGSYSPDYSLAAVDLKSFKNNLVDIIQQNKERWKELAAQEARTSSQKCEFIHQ

## CC(=O)Oc1ccccc1C(=O)Nc1ncc([N+](=O)[O-])s1 [Nitazoxanide]
[1]
  IC50: 137 µM
[2]
  IC50: 67.5 µM
[3]; 0.01 μM, 24 h
  Cell proliferation (% of Control): 126.3 % of Control
[3]; 0.01 μM, 48 h
  Cell proliferation (% of Control): 113.7 % of Control
[3]; 0.01 μM, 72 h
  Cell proliferation (% of Control): 114.6 % of Control
[3]; 0.1 μM, 24 h
  Cell proliferation (% of Control): 114.3 % of Control
[3]; 0.1 μM, 48 h
  Cell proliferation (% of Control): 115.2 % of Control
[3]; 0.1 μM, 72 h
  Cell proliferation (% of Control): 102.4 % of Control
[3]; 0.5 μM, 24 h
  Cell proliferation (% of Control): 120.3 % of Control
[3]; 0.5 μM, 48 h
  Cell proliferation (% of Control): 113.4 % of Control
[3]; 0.5 μM, 72 h
  Cell proliferation (% of Control): 106.2 % of Control
[3]; 1 μM, 24 h
  Cell proliferation (% of Control): 123 % of Control
[3]; 1 μM, 48 h
  Cell proliferation (% of Control): 110.8 % of Control
[3]; 1 μM, 72 h
  Cell proliferation (% of Control): 101.7 % of Control
[3]; 5 μM, 24 h
  Cell proliferation (% of Control): 121.6 % of Control
[3]; 5 μM, 48 h
  Cell proliferation (% of Control): 91.8 % of Control
[3]; 5 μM, 72 h
  Cell proliferation (% of Control): 82.9 % of Control
[3]; 10 μM, 24 h
  Cell proliferation (% of Control): 103.8 % of Control
[3]; 10 μM, 48 h
  Cell proliferation (% of Control): 77 % of Control
[3]; 10 μM, 72 h
  Cell proliferation (% of Control): 69.5 % of Control
[3]; 50 μM, 24 h
  Cell proliferation (% of Control): 92.6 % of Control
[3]; 50 μM, 48 h
  Cell proliferation (% of Control): 69.6 % of Control
[3]; 50 μM, 72 h
  Cell proliferation (% of Control): 49.6 % of Control
[3]; 100 μM, 24 h
  Cell proliferation (% of Control): 89.7 % of Control
[3]; 100 μM, 48 h
  Cell proliferation (% of Control): 61 % of Control
[3]; 100 μM, 72 h
  Cell proliferation (% of Control): 33.1 % of Control
[3]; Homo sapiens, HaCaT, 72 h, read-out: IC50 of cell proliferation
  IC50: 39.9 µM
[4]; 0.01 μM, 24 hrs
  % Viability (±S.E.M.): 97 ± 1%
[4]; 0.01 μM, 48 hrs
  % Viability (±S.E.M.): 106 ± 8%
[4]; 0.01 μM, 72 hrs
  % Viability (±S.E.M.): 113 ± 10%
[4]; 1 μM, 24 hrs
  % Viability (±S.E.M.): 91 ± 2%
[4]; 1 μM, 48 hrs
  % Viability (±S.E.M.): 105 ± 7%
[4]; 1 μM, 72 hrs
  % Viability (±S.E.M.): 106 ± 2%
[4]; 100 μM, 24 hrs
  % Viability (±S.E.M.): 76 ± 4%
[4]; 100 μM, 48 hrs
  % Viability (±S.E.M.): 42 ± 4%
[4]; 100 μM, 72 hrs
  % Viability (±S.E.M.): 11 ± 3%
[4]; PBMCs, maximum concentration for stimulation study
  Concentration which exhibited cell viability of 70%: 50 µM
[5]; 1 μM
  Human IL-17A concentration: 39 pg/mL
[5]; 10 μM
  Human IL-17A concentration: 0 pg/mL
[5]; 25 μM
  Human IL-17A concentration: 0 pg/mL
[5]; 50 μM
  Human IL-17A concentration: 0 pg/mL
[6]; 1 μM
  Human IL-17F concentration: 166 pg/mL
[6]; 10 μM
  Human IL-17F concentration: 0 pg/mL
[6]; 25 μM
  Human IL-17F concentration: 0 pg/mL
[6]; 50 μM
  Human IL-17F concentration: 0 pg/mL
[7]; 1 μM
  Human IL-6 concentration: 5520 pg/mL
[7]; 10 μM
  Human IL-6 concentration: 5342 pg/mL
[7]; 25 μM
  Human IL-6 concentration: 3567 pg/mL
[7]; 50 μM
  Human IL-6 concentration: 2531 pg/mL
[8]; 1 μM
  Human IL-10 concentration: 1799 pg/mL
[8]; 10 μM
  Human IL-10 concentration: 512 pg/mL
[8]; 25 μM
  Human IL-10 concentration: 76 pg/mL
[8]; 50 μM
  Human IL-10 concentration: 42 pg/mL
[9]; 1 μM
  Human IL-12 concentration: 3892 pg/mL
[9]; 10 μM
  Human IL-12 concentration: 1500 pg/mL
[9]; 25 μM
  Human IL-12 concentration: 406 pg/mL
[9]; 50 μM
  Human IL-12 concentration: 101 pg/mL
[10]; 1 μM
  Human IL-1β concentration: 4470 pg/mL
[10]; 10 μM
  Human IL-1β concentration: 3971 pg/mL
[10]; 25 μM
  Human IL-1β concentration: 3203 pg/mL
[10]; 50 μM
  Human IL-1β concentration: 2506 pg/mL
[11]; 0.1 μM, 24 hrs
  % Viability (±S.E.M.): 89 ± 1%
[11]; 0.1 μM, 48 hrs
  % Viability (±S.E.M.): 99 ± 9%
[11]; 0.1 μM, 72 hrs
  % Viability (±S.E.M.): 103 ± 3%
[11]; 1 μM, 24 hrs
  % Viability (±S.E.M.): 81 ± 3%
[11]; 1 μM, 48 hrs
  % Viability (±S.E.M.): 86 ± 8%
[11]; 1 μM, 72 hrs
  % Viability (±S.E.M.): 91 ± 2%
[11]; 10 μM, 24 hrs
  % Viability (±S.E.M.): 41 ± 1%
[11]; 10 μM, 48 hrs
  % Viability (±S.E.M.): 40 ± 2%
[11]; 10 μM, 72 hrs
  % Viability (±S.E.M.): 46 ± 3%
[11]; 50 μM, 24 hrs
  % Viability (±S.E.M.): 18 ± 1%
[11]; 50 μM, 48 hrs
  % Viability (±S.E.M.): 15 ± 2%
[11]; 50 μM, 72 hrs
  % Viability (±S.E.M.): 18 ± 1%
[11]; 100 μM, 24 hrs
  % Viability (±S.E.M.): 17 ± 1%
[11]; 100 μM, 48 hrs
  % Viability (±S.E.M.): 13 ± 1%
[11]; 100 μM, 72 hrs
  % Viability (±S.E.M.): 17 ± 1%
[11]; HaCaT cells, maximum concentration for stimulation study
  Concentration which exhibited cell viability of 70%: 1 µM
[12]; 0.1 μM
  TNF-α Conc.: 3 ± 0.2 pg/mL
[12]; 0.5 μM
  TNF-α Conc.: 2.5 ± 0.5 pg/mL
[12]; 1 μM
  TNF-α Conc.: 2.3 ± 0.4 pg/mL
[13]; 0.1 μM
  IL-6 Conc.: 83 ± 1 pg/mL
[13]; 0.5 μM
  IL-6 Conc.: 79 ± 4 pg/mL
[13]; 1 μM
  IL-6 Conc.: 70 ± 4 pg/mL
